In PubChem BioAssay AID1013 (Columbia University Molecular Screening Center, 2008):
Calls of active or inactive are those of the source. No rule for the calls is given here.

Key:
[1] = blockers of VCAM1 upregulation by TNFa – imaging, TNFa stimulus, retest and dose response, confirmation (AID 1013); conditions: TNFa-stimulated cells, VCAM1 expression imaging; for cell count: at 10 µM, stronger effect = lower value; for inhibition: at 2 µM, stronger effect = higher value;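 as to cell count: compound on cells 1 h before TNFa then 24 h more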
[2] = system: TNFa-stimulated cells, VCAM1 expression imaging; assay: as above

SMILES | cell count [1] | IC50 [2] | inhibition [1]
O=[N+]([O-])/C=C/c1c(OCc2ccccc2)ccc2ccccc12 | 112% | > 10 µM (inactive) | –
Cc1ccc(C(=O)c2cc([N+](=O)[O-])ccc2N2CCOCC2)c(C)c1 | 41.4% | 2.86 µM | –
Cc1cc(C)c2nc(SCC(=O)N3CC(=O)Nc4ccccc43)c(C#N)cc2c1 | 47.2% | 4.81 µM | –
O=C(Nc1ccccc1)c1nnsc1S(=O)c1ccc(Cl)cc1 (stereo unspecified) | 95.6% | > 10 µM (inactive) | –
Cc1ccc2nc(SCC(=O)Nc3cc(C(F)(F)F)ccc3N3CCOCC3)[nH]c2c1 | 105% | > 10 µM (inactive) | –
CC(/C=N/NC(=O)c1cc(-c2ccncc2)nc2ccccc12)=C\c1ccco1 | 30.4% | 3.6 µM | –
NC(=S)N/N=C\c1ccc(-c2cccc(Cl)c2Cl)o1 | 106% | > 10 µM (inactive) | –
Cc1ccc(-c2nc(NC(=O)c3nn(C)cc3[N+](=O)[O-])sc2C)cc1C | 94.9% | > 10 µM (inactive) | –
CSc1nc(N(C)NC(=O)c2cccc(C)c2)c2ccccc2n1 | 39.5% | 0.415 µM | –
COc1ccc(S(=O)(=O)Nc2cc3c(C(C)=O)c(C)oc3c3ccccc23)cc1 | 113% | > 10 µM (inactive) | –
COCCOC(=O)c1[nH]c2c(c1C)C(=O)CC(c1ccccc1)C2 (stereo unspecified) | 63% | > 10 µM (inactive) | –
Cc1ccc(-n2ncc3c(N4CCN(c5ccccc5)CC4)ncnc32)c(C)c1 | 111% | > 10 µM (inactive) | –
O=C(c1ccc([N+](=O)[O-])cc1)N(Cc1ccc(Cl)cc1)N1C(=O)CCCC1=O | 91.5% | > 10 µM (inactive) | –
O=c1cc(C(Cl)(Cl)Cl)oc2c1ccc1ccccc12 | 104% | > 10 µM (inactive) | –
COC(=O)c1ccccc1NC(=O)Cn1c(-c2nonc2N)nc2ccccc21 | 104% | > 10 µM (inactive) | –
C/C(=N\O)c1ccc2c3ccccc3n(C)c2c1 | 89% | > 10 µM (inactive) | –
Cc1cc(C)c(/C=N/NC(N)=O)c(C)c1/C=N/NC(N)=O | 71.9% | 0.517 µM | –
COc1cc(C(=O)N2CCN(c3cc(Cl)ccc3Cl)CC2)cc(OC)c1OC | 82.9% | > 10 µM (inactive) | –
Cc1ccc2[nH]c3c(c2c1)CCC3=O | 72% | 1 µM | –
O=Cc1cc2ccccc2nc1SCc1ccc(Cl)c(Cl)c1 | 109% | > 10 µM (inactive) | –
CCCCCc1ccc(-c2ccc(=O)[nH]n2)cc1 | 91% | 2.49 µM | –
Cc1ccc(O)c(NC(=O)CCC2CCCCC2)c1 | 113% | > 10 µM (inactive) | –
C=CCn1c(SCc2c(C)noc2C)nc2ccccc2c1=O | 43.3% | > 10 µM (inactive) | –

SMILES | cell count [1] | IC50 [2] | inhibition [1]
O=Cc1cc2ccccc2nc1SCc1ccc(Cl)cc1 | 99.9% | > 10 µM (inactive) | –
C/C=C/COC(=O)c1[nH]c2c(c1C)C(=O)CC(c1ccco1)C2 (stereo unspecified) | 73.9% | > 10 µM (inactive) | –
Cc1c(C(=O)OCC(C)C)[nH]c2c1C(=O)CC(c1ccco1)C2 (stereo unspecified) | 48.4% | > 10 µM (inactive) | –
O=C(OCn1ncc(Br)c(Br)c1=O)c1c(F)cccc1F | 54.9% | 8.04 µM | –
CCc1ccc2oc(-c3cc(N)ccc3O)nc2c1 | 97.7% | > 10 µM (inactive) | –
CCN(CC)c1ccc(-c2nn3c(-c4ccccc4OC)nnc3s2)cc1 | 31.6% | 2.97 µM | –
CCCOc1ccc(C(=O)C(CN2CCOCC2)c2ccccc2)cc1 (stereo unspecified) | 79.7% | 5.2 µM | –
COc1ccccc1-n1cnc2cc(NCc3ccco3)ccc21 | 41.8% | > 10 µM (inactive) | –
CCOc1ccc(S(=O)(=O)Nc2cc(OC)ccc2OC)cc1 | 45.4% | 1.78 µM | –
COc1cc(C(=O)N/N=C/c2ccsc2C)cc(OC)c1OC | 48.6% | > 10 µM (inactive) | –
O=C(N/N=C/C(Br)=C\c1ccccc1)c1n[nH]c2c1CCC2 | 29.2% | 0.636 µM | –
CC1=C([N+](=O)[O-])C(c2cccc(Br)c2)C2=C(N1)c1ccccc1C2=O (stereo unspecified) | 68.1% | > 10 µM (inactive) | –
COc1ccc(C(=O)c2c(C(F)(F)F)oc3c2C(=O)c2ccccc2C3=O)cc1 | 105% | > 10 µM (inactive) | –
CC(C)Oc1ccccc1C1CC(=O)Nc2cc3c(cc21)OCO3 (stereo unspecified) | 80.6% | > 10 µM (inactive) | –
COc1cc(C2C(C#N)=C(C)NC3=C2C(=O)c2ccccc23)cc(OC)c1OC (stereo unspecified) | 32% | 0.221 µM | –
O=S(=O)(c1ccc(Cl)c(Cl)c1)c1snnc1-c1ccccc1 | 99.6% | 7.93 µM | –
O=C1C(=O)c2ccccc2-c2ccccc21 | 44.1% | 3 µM | –
O=C(N/N=C/C(Br)=C/c1ccccc1)c1n[nH]c2c1CCC2 | 28.6% | 0.0993 µM | –
CC(C)Oc1ccccc1C1CC(=O)Nc2cc3c(cc21)OCCO3 (stereo unspecified) | 104% | > 10 µM (inactive) | –
Oc1ccc(Nc2nc3ccccc3nc2Nc2ccc(O)cc2)cc1 | 1.62% | 3.26 µM | –
CCOC(=O)C1=C(c2ccccc2)O/C(=C(/C#N)C(F)(F)F)S1 | 107% | > 10 µM (inactive) | –
CCN(CC)c1ccc(C2=NNC(=O)CC2C)cc1[N+](=O)[O-] (stereo unspecified) | 50.8% | 0.0384 µM | –
COc1cc2c(O)c3c(c(-c4ccc5c(c4)OCO5)c2cc1OC)C(=O)OC3 | 86.8% | 3.24 µM | –

SMILES | cell count [1] | IC50 [2] | inhibition [1]
O=C1C(=O)c2ccc(-c3ccccc3)cc2-c2ccccc21 | 109% | > 10 µM (inactive) | –
COc1ccccc1-c1cc(C(F)(F)F)nc(S(=O)(=O)CCCC(=O)N2CCCCC2C)n1 (stereo unspecified) | 88.8% | > 10 µM (inactive) | –
NC(=S)N/N=C/c1ccc(-c2ccc(Cl)c(Cl)c2)o1 | 93.5% | > 10 µM (inactive) | –
CCC(C)[C@@H](NC(=O)OC(C)(C)C)c1nnc(S(=O)(=O)Cc2cccc(C)c2)o1 (stereo partly specified) | 95.6% | > 10 µM (inactive) | –
CCCCCCCCCCn1c2c(c(=N)c3c1CCC3)CCC2 | – | 0.55 µM | –
O=C(O)c1cc2nc3c(c(C(F)(F)F)n2n1)CCc1ccccc1-3 | – | – | 4.4% (inactive)
COc1cc(NC(=O)CN2C(=O)NC(C)(CC(C)C)C2=O)cc(OC)c1 (stereo unspecified) | – | – | 11.6% (inactive)
FC(F)(F)c1cc(-c2ccc3c(c2)OCO3)nc(NCc2ccco2)n1 | – | – | 16.2% (inactive)
Cc1ccc(-n2nc3ccc(NC(=O)/C=C/c4ccco4)cc3n2)cc1C | – | – | 14% (inactive)
O=C(NC(NC1CCS(=O)(=O)C1)C(=O)c1cccs1)c1ccccc1 (stereo unspecified) | – | – | 9.9% (inactive)
Cc1cccc(NC(=O)CC2SC(=O)N(c3ccccc3)C2=O)c1 (stereo unspecified) | – | – | 3.9% (inactive)
O=C(O)c1ccccc1Nc1ccccc1C(=O)O | – | – | 0.6% (inactive)
C=CCNC(=O)c1nn2cccnc2c1Cl | – | – | 3.3% (inactive)
CCc1cccc(CC)c1NC(=O)C1SC(=Nc2ccccc2C)C(c2nc3ccccc3s2)=C1N (stereo unspecified) | – | – | 3.9% (inactive)
O=C(c1cc(-c2ccncc2)nc2ccc(Br)cc12)N1CCN(c2ccccn2)CC1 | – | – | 1.3% (inactive)
COc1cc(NC(=O)c2ccc(COCC(F)(F)F)o2)cc(OC)c1OC | – | – | 20.7% (inactive)
Cc1ccc(C(=O)OCn2ncc(Cl)c(Cl)c2=O)cc1 | – | 2.31 µM | –
Cc1cc(NC(=O)NC(=O)c2cccc(OC(F)(F)C(F)F)c2)n[nH]1 | – | – | 3.8% (inactive)
Cc1cc(C)n(-c2nc(-c3cccc(Cl)c3)cs2)n1 | – | – | 2.2% (inactive)
Cc1ccc(S(=O)(=O)Cn2nnnc2C(C(C)C)N2CCN(c3nc4ccccc4s3)CC2)cc1 (stereo unspecified) | – | – | -0.6% (inactive)
Cc1ccc(N/N=C/c2ccc(N3CCOCC3)cc2)cc1C | – | – | -4.8% (inactive)
CCOC(=O)Cc1csc(NC(=O)COc2ccc(N(C)S(=O)(=O)c3ccc(C)cc3)cc2)n1 | – | – | -1.3% (inactive)
Cc1ccc(-c2nn(C(C)(C)C)c3ncnc(N)c23)cc1 | – | – | -0.9% (inactive)

SMILES | cell count [1] | IC50 [2] | inhibition [1]
Cc1cccc(C(=O)Oc2ccccc2C2C[C@]3(C)CC(=O)NC3N2C(=O)c2cccc(C)c2)c1 (stereo partly specified) | – | – | -2.5% (inactive)
COc1ccc(NC(=O)N2CCn3c2nc2ccccc23)cc1 | – | – | 13% (inactive)
O=C(Oc1csc(=S)n1C(=O)c1ccccc1)c1ccccc1 | – | – | 4% (inactive)
Cc1cc(C(=O)NN=C2C3CC4CC(C3)CC2C4)c2ccccc2n1 | – | – | -1.3% (inactive)
Cc1ccccc1Cn1nc(C)c(NC(=O)c2cc(-c3cccs3)on2)c1C | – | – | -4.7% (inactive)
Nc1ccccc1NC(=O)c1ccccc1N | – | – | -3.2% (inactive)
N=c1nc(N)nc2n1NC(c1ccc(F)cc1)=CS2 | – | – | -1.2% (inactive)
CCOC(=O)N1CCN(C(=O)COc2ccc(Cl)cc2C)CC1 | – | – | 5.2% (inactive)
O=C(NCc1ccco1)c1cc(-c2ccc(Cl)cc2)on1 | – | – | -6.2% (inactive)
Cc1nc([N+](=O)[O-])c(Br)n1CC(=O)c1ccc(Br)cc1 | 116% | – | 27% (inactive)
C/C(=C\C(=O)c1cccnc1)Nc1ccc(C)c(C)c1 | – | – | -15.6% (inactive)
Cc1cc(C)cc(OCCCCCNCCO)c1 | – | – | -9.9% (inactive)
C=CCCCOc1ccc(C(=O)O)cc1 | – | – | 8.3% (inactive)
O=C(CC(c1ccccc1)c1ccccc1)NCC1CCCO1 (stereo unspecified) | – | – | -7.2% (inactive)
Nc1cc(=O)nc(SCc2ccccc2)n1Cc1ccco1 | – | – | 7% (inactive)
Cc1nc2ccccc2n1CCCOc1ccccc1 | – | – | -0.7% (inactive)
CCc1nc2oc3ccccc3c(=O)c2c(=O)n1CCOC | – | – | -0.1% (inactive)
CN=c1sc2ccccc2n1CC(O)COc1ccccc1 (stereo unspecified) | – | – | -13.2% (inactive)
CC(=NCCCO)c1c(O)n(Cc2ccccc2)c(=O)[nH]c1=O | – | – | -13.3% (inactive)
Cc1nnc(SCc2cn3ccsc3n2)n(N)c1=O | – | – | -9.6% (inactive)
CCn1c(SCC(=O)NC(C)c2ccccc2)nc2ccccc21 (stereo unspecified) | – | – | -13.3% (inactive)
